# Laboratory results taken from publication PMC10175918 (Communications Biology, 2023).
# Read-outs that look alike come from different tables or passages of the source.
# Columns and labels:
# Experiment in all cases: TGFα-shedding assay-based GPCR screening with chimeric Gα subunit proteins
# Assay type in all cases: cell-based
# [1] = biological target: T1, 348 GPCRs (Homo sapiens, UniProt Q9BXA5); conditions: 10µM, Favipiravir 100μM
# T1 construct: expressed in transfected cells; host or cells: HEK293A
# T1 sequence (Q9BXA5 1-334): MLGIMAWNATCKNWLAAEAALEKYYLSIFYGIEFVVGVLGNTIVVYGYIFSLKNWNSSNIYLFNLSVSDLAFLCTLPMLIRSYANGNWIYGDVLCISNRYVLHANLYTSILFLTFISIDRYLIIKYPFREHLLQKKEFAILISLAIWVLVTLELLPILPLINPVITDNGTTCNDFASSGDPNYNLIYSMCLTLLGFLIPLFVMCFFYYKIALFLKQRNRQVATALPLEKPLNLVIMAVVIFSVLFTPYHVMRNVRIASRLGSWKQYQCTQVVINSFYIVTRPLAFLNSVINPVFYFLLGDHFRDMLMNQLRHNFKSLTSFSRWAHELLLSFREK
# [2] = biological target: T2, 348 GPCRs (Homo sapiens, UniProt O14843); conditions: 10µM, Favipiravir 100μM
# T2 construct: expressed in transfected cells; host or cells: HEK293A
# T2 sequence (O14843 1-346): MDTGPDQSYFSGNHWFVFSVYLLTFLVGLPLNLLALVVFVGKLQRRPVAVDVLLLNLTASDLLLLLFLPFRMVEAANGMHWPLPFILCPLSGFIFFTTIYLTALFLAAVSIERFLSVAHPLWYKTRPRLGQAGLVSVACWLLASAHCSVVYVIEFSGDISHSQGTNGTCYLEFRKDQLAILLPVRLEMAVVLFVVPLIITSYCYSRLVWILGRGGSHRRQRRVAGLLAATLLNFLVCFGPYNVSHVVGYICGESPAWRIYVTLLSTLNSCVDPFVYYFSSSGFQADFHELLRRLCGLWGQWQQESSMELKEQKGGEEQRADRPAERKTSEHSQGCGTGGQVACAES
# [3] = biological target: T3, 348 GPCRs (Homo sapiens, UniProt P21731); conditions: 10µM, Favipiravir 100μM
# T3 construct: expressed in transfected cells; host or cells: HEK293A
# T3 sequence (P21731 1-343): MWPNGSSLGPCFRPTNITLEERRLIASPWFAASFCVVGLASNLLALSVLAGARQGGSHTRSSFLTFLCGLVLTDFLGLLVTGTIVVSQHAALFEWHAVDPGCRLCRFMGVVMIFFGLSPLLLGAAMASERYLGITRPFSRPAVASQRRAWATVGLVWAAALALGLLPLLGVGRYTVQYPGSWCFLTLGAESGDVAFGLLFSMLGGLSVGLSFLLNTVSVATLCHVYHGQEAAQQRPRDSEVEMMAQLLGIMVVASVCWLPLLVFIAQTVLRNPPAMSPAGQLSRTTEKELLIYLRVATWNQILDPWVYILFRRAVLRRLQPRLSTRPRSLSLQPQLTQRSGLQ
# [4] = biological target: T4, 348 GPCRs (Homo sapiens, UniProt Q9HBW0); conditions: 10µM, Favipiravir 100μM
# T4 construct: expressed in transfected cells; host or cells: HEK293A
# [5] = biological target: T5, 348 GPCRs (Homo sapiens, UniProt P08913)
# T5 construct: expressed in transfected cells; host or cells: HEK293A
# T5 sequence (P08913 1-465): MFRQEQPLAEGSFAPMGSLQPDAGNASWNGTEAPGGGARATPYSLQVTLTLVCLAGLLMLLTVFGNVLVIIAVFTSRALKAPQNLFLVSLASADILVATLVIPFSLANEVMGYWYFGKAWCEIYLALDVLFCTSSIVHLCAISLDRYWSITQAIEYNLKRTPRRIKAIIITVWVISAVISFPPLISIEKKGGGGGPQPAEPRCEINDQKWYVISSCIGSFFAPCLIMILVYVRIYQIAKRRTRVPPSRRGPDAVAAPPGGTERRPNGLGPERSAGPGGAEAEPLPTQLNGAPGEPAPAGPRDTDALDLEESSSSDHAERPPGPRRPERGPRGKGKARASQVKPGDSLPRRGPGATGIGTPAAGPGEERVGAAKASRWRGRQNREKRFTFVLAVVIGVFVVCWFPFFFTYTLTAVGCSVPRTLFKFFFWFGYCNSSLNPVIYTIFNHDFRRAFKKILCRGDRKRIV
# [6] = biological target: 348 GPCRs (Homo sapiens, UniProt Q9UPC5); conditions: 10µM, Favipiravir 100μM
# [7] = biological target: T6, 348 GPCRs (Homo sapiens, UniProt P43088); conditions: 10µM, Favipiravir 100μM
# T6 construct: expressed in transfected cells; host or cells: HEK293A
# [8] = biological target: T7, 348 GPCRs (Homo sapiens, UniProt Q99677); conditions: LPAR4 (lysophosphatidic acid receptor 4); 10µM, Favipiravir 100μM
# T7 construct: expressed in transfected cells; host or cells: HEK293A
# [9] = biological target: T8, 348 GPCRs (Homo sapiens, UniProt Q96RJ0); conditions: 10µM, Favipiravir 100μM
# T8 construct: expressed in transfected cells; host or cells: HEK293A
# T8 sequence (Q96RJ0 1-339): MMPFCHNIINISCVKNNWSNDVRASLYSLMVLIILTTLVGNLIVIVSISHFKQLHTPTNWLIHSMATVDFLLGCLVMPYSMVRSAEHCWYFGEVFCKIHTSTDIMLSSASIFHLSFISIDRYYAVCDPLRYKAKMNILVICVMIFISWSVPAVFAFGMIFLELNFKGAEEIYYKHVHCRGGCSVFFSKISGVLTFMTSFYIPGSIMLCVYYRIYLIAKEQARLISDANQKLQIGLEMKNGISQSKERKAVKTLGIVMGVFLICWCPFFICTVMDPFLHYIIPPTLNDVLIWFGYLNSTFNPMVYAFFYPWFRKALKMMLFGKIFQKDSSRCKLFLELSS
# [10] = biological target: T9, 348 GPCRs (Homo sapiens, UniProt Q9NQS5); conditions: 10µM, Favipiravir 100μM
# T9 construct: expressed in transfected cells; host or cells: HEK293A
# [11] = read-out: % GPCR activation compared to TPA, SUCNR1 (succinate receptor 1)
# [12] = read-out: % GPCR activation compared to TPA, FFA3 (free fatty acid receptor 3)
# [13] = read-out: % GPCR activation compared to TPA, TBXA2R (thromboxane A2 receptor)
# [14] = read-out: % GPCR activation compared to TPA, LPAR2 (lysophosphatidic acid receptor 2)
# [15] = read-out: % GPCR activation compared to TPA, GPCR α2A (adrenoceptor alpha 2A)
# [16] = read-out: % GPCR activation compared to TPA, GPR34 (G Protein-Coupled Receptor 34)
# [17] = read-out: % GPCR activation compared to TPA, FP (prostaglandin F receptor)
# [18] = read-out: % GPCR activation compared to TPA, TA1 (trace amine associated receptor 1)
# [19] = read-out: % GPCR activation compared to TPA, GPR84 (G protein-coupled receptor 84)
# [20] = SUCNR1 (succinate receptor 1), read-out: % GPCR activation compared to TPA
# [21] = FFA3 (free fatty acid receptor 3), read-out: % GPCR activation compared to TPA
# [22] = TBXA2R (thromboxane A2 receptor), read-out: % GPCR activation compared to TPA
# [23] = LPAR2 (lysophosphatidic acid receptor 2), read-out: % GPCR activation compared to TPA
# [24] = GPCR α2A (adrenoceptor alpha 2A), read-out: % GPCR activation compared to TPA
# [25] = GPR34 (G Protein-Coupled Receptor 34), read-out: % GPCR activation compared to TPA
# [26] = FP (prostaglandin F receptor), read-out: % GPCR activation compared to TPA
# [27] = TA1 (trace amine associated receptor 1), read-out: % GPCR activation compared to TPA
# [28] = GPR84 (G protein-coupled receptor 84), read-out: % GPCR activation compared to TPA
# Sequence of 348 GPCRs (Homo sapiens, UniProt Q9UPC5) (Q9UPC5 whole entry): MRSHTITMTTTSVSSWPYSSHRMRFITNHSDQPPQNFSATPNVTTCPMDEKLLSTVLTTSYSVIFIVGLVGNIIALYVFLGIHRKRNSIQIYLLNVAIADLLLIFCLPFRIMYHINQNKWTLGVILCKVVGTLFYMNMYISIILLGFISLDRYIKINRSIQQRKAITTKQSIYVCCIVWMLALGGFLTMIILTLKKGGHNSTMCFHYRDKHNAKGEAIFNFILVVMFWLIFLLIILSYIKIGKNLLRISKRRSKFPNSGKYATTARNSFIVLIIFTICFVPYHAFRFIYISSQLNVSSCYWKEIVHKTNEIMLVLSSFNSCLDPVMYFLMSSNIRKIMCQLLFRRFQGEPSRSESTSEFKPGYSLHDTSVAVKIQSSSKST
# T6 sequence (P43088 whole entry): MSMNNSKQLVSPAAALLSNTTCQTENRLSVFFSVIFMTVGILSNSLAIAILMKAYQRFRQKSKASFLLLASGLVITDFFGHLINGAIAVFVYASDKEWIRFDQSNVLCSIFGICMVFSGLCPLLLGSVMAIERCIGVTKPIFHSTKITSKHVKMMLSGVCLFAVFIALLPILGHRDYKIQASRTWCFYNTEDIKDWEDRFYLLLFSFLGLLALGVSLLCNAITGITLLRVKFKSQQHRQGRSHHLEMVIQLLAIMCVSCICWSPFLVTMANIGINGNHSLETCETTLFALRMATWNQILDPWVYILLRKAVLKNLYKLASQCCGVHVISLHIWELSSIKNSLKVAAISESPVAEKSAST
# T7 sequence (Q99677 whole entry): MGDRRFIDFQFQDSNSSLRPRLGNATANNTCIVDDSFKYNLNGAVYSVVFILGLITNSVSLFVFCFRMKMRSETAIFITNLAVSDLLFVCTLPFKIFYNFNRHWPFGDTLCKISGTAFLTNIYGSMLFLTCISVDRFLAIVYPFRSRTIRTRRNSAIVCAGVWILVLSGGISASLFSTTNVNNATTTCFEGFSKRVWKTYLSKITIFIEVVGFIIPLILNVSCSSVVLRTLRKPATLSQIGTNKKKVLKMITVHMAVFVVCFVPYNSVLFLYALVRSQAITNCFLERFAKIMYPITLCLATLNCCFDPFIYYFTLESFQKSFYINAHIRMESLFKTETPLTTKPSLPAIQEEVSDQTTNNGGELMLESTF
# T9 sequence (Q9NQS5 whole entry): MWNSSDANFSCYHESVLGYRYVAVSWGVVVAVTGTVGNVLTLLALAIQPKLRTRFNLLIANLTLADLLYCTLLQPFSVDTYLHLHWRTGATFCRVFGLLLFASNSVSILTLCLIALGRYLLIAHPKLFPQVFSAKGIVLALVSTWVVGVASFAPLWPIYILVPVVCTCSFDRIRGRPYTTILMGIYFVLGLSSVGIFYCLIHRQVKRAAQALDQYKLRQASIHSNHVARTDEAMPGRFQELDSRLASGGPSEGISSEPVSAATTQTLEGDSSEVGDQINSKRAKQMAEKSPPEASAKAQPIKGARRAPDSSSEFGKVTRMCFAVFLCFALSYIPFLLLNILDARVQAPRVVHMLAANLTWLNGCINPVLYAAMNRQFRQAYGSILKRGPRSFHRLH
# T4 sequence (Q9HBW0 whole entry): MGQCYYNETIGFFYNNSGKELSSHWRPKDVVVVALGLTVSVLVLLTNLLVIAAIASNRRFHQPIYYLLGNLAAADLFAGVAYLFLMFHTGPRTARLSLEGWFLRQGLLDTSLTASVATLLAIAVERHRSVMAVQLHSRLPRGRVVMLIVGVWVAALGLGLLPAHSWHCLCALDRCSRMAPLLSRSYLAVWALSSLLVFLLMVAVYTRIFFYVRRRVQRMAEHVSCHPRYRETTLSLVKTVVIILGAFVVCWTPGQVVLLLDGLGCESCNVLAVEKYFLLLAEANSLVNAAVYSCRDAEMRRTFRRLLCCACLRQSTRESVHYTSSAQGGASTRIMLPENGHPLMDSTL
compound,measurement,setting,value
CC(C)OC(=O)[C@H](C)N[P@](=O)(OC[C@H]1O[C@@H](n2ccc(=O)[nH]c2=O)[C@](C)(F)[C@@H]1O)Oc1ccccc1 [sofosbuvir],activation at 10 µM,[1]; [11],-0.922%
same,activation at 10 µM,[2]; [12],0.217%
same,activation at 10 µM,[3]; [13],0.249%
same,activation at 10 µM,[4]; [14],2.99%
same,activation at 10 µM,[5]; [15],-2.48%
same,activation at 10 µM,[6]; [16],-0.895%
same,activation at 10 µM,[7]; [17],-2.66%
same,% GPCR activation compared to TPA,[8],3.133%
same,activation at 100 µM,[9]; [18],-1.12%
same,activation at 100 µM,[10]; [19],-3.67%
CC(C)C(=O)OC[C@H]1O[C@@H](n2ccc(NO)nc2=O)[C@H](O)[C@@H]1O [molnupiravir],activation at 10 µM,[1]; [20],-1.93%
same,activation at 10 µM,[2]; [21],-0.0973%
same,activation at 10 µM,[3]; [22],-1.16%
same,activation at 10 µM,[4]; [23],2.59%
same,activation at 10 µM,[5]; [24],-0.00545%
same,activation at 10 µM,[6]; [25],-1.95%
same,activation at 10 µM,[7]; [26],-0.35%
same,% GPCR activation compared to TPA,[8],-0.2125%
same,activation at 100 µM,[9]; [27],-2.64%
same,activation at 100 µM,[10]; [28],-3.53%
"NC(=O)c1nc(F)cnc1O [favipiravir, 6-fluoro-3-hydroxy-2-pyrazinecarboxamide]",activation at 10 µM,[1]; [20],-2.99%
same,activation at 10 µM,[2]; [21],-0.552%
same,activation at 10 µM,[3]; [22],-0.974%
same,activation at 10 µM,[4]; [23],1.47%
same,activation at 100 µM,"[5]; GPCR α2A (adrenoceptor alpha 2A), 100μM, read-out: % GPCR activation compared to TPA",1.73%
same,activation at 10 µM,[6]; [25],-0.575%
same,activation at 10 µM,[7]; [26],0.208%
same,% GPCR activation compared to TPA,[8],-0.5456%
same,activation at 100 µM,[9]; [27],-2.98%
same,activation at 100 µM,[10]; [28],-0.768%
N#C[C@@]1(c2ccc3c(N)ncnn23)O[C@H](CO)[C@@H](O)[C@H]1O [GS441524],activation at 10 µM,[1]; [20],-1.18%
same,activation at 10 µM,[2]; [21],-0.449%
same,activation at 10 µM,[3]; [22],-0.528%
same,activation at 10 µM,[4]; [23],-0.123%
same,activation at 10 µM,[5]; [24],-0.949%
same,activation at 10 µM,[6]; [25],-1.27%
same,activation at 10 µM,[7]; [26],0.154%
same,% GPCR activation compared to TPA,[8],1.193%
same,activation at 100 µM,[9]; [27],-1.3%
same,activation at 100 µM,[10]; [28],5.15%
CCC(CC)COC(=O)[C@H](C)N[P@](=O)(OC[C@H]1O[C@@](C#N)(c2ccc3c(N)ncnn23)[C@H](O)[C@@H]1O)Oc1ccccc1 [remdesivir],activation at 10 µM,[1]; [11],-2.26%
same,activation at 10 µM,[2]; [12],4.74%
same,activation at 10 µM,[3]; [13],-0.881%
same,activation at 10 µM,[4]; [14],1.11%
same,activation at 10 µM,[5]; [15],8.13%
same,activation at 10 µM,[6]; [16],-1.23%
same,activation at 10 µM,[7]; [17],1.47%
same,% GPCR activation compared to TPA,[8],-0.0834%
same,activation at 100 µM,[9]; [18],-1.76%
same,activation at 100 µM,[10]; [19],2.57%
